For orientation: mass density means the mass of a sample divided by its volume. Usually refractive index stands for a measure of how strongly the sample bends light.

± gives the expanded uncertainty stated by the source.

Here are results for four compounds from the NIST ThermoML archive (doi:10.1016/j.fluid.2016.01.050).

The conditions of data set [1]: 298 K; 101.33 kPa; Liquid; Vibrating tube method.
Data set [2] can be described thus: refractive index (Na D-line) (dimensionless). The conditions noted are these: 298 K; 101.33 kPa; Liquid; Standard Abbe refractometry.

Turning to `c1ccc(COCc2ccccc2)cc1` [dibenzyl ether], the mass density in data set [1] is 1039.32 ± 0.4 kg/m3. The refractive index in data set [2] is given as 1.56019 ± 0.00042.
The corresponding values for `CC(O)c1ccccc1` (stereo not drawn) [1-phenylethanol] are 1006.48 ± 0.38 kg/m3 and 1.52467 ± 0.00042.
As to `Clc1ccccc1` [chlorobenzene], the mass density in data set [1] is on record as 1101.08 ± 0.44 kg/m3. In data set [2], the refractive index was 1.52165 ± 0.00042.
On the same counts, the results for `CCCCC(=O)O` [pentanoic acid] are 935.04 ± 0.37 kg/m3 and 1.40718 ± 0.00042.
